Values after ≈ are worked out from the molar mass of the structure shown.
Key:
Type in all cases: cell-based
Candida albicans 10231 = experiment: Broth microdilution MIC (M27-A2), yeast, strain XIV; conditions: strain XIV 10231, 48 hours incubation
Description: (§1) For the experiments of the present invention (i) yeast strains obtained from clinical isolates and laboratory isolates, and (ii) bacterial strains obtained from laboratory isolates were used, as described in Table 5 as follows. The yeast strains were grown in culture medium Sabouraud Dextrose Agar maintained at a temperature of 35° C. for 48 hours. […] The compounds were dissolved in dimethyl sulfoxide (DMSO) to match the final concentration of the compound equal to or less than 1%. The methodology used to test the sensitivity of the agent was broth microdilution according to the method described in Standard M27-A2 (Reference method for broth dilution tests to determine the sensitivity of yeasts to antifungal therapy-second edition, NCCLS, volume 22 number 15, USA, 2002) as follows. […] Then the suspensions were diluted in culture medium RPMI-1640 (buffered with MOPS 0.165 mol/l) at a final concentration of 50 to 2500 CFU/mL. The diluted suspensions were inoculated in duplicate in a 96-well plate. The procedure was performed in a laminar flow. […] The incubation of fungi with these compounds was carried out for 48 hours at temperature of 30 to 35° C. […] We have agreed in this experiment that the turbid medium is the result of microbial growth and the presence of deposit and a clear medium represents the absence of microbial growth. The minimum inhibitory concentration (MIC) was defined as the lowest tested drug concentration that prevents any degree of […] growth.

[1] = test system: Staphylococcus epidermidis 12228; experiment: Broth microdilution MIC (M7-A6), bacteria, strain XVII; conditions: strain XVII 12228, 24 hours incubation
Description: (§2) For the experiments of the present invention (i) yeast strains obtained from clinical isolates and laboratory isolates, and (ii) bacterial strains obtained from laboratory isolates were used, as described in Table 5 as follows. […] The compounds were dissolved in dimethyl sulfoxide (DMSO) to match the final concentration of the compound equal to or less than 1%. The methodology used to test the sensitivity of the agent was broth microdilution according to the method described in Standard M7-A6 (Methodology of sensitivity tests to antimicrobial agents by dilution for bacteria with aerobic growth-6th Edition: NCCLS, volume 23, No. 2, USA, 2003), as follows. […] Then the suspensions were diluted in Mueller Hinton culture medium to a final concentration of 5×10^4CFU/mL. The diluted suspensions were inoculated in 0.1 mL in duplicates in […] plates. The procedure was performed in a laminar flow. […] Incubation of fungi with these compounds was carried out for 24 hours at a temperature of 30 to 35° C. […] We have agreed in this experiment that the turbid medium is the result of microbial growth and the presence of deposit and a clear medium represents the absence of microbial growth. The minimum inhibitory concentration (MIC) was defined as the lowest tested drug concentration that prevents any degree of bacterial growth.

[2] = test system: three different species of yeast and two distinct species of bacteria; experiment: Growth inhibition of the yeast and bacteria strains of Table 5, summary
Description: For the experiments of the present invention (i) yeast strains obtained from clinical isolates and laboratory isolates, and (ii) bacterial strains obtained from laboratory isolates were used, as described in Table 5 as follows.
The yeast strains were grown in culture medium Sabouraud Dextrose Agar maintained at a temperature of 35° C. for 48 hours.
The bacterial strains were grown in culture medium Triptic Soy Agar at 35° C. for two to six hours (or until the turbidity of a McFarland standard solution equal to 0.5). 5.2 Mounting of Preparations and Test For the experiments, compound 1-[2-(2,4-dichlorophenyl)-2-{[4-(trifluoromethyl)benzyl]oxy}ethyl]-1H-imidazole (BL-123) in the form of its nitrate salt, 1-[2-(2,4-dichlorophenyl)]-2-({4-[(2-phenyl)-2H-tetrazole]benzyl}oxy)ethyl]-1H-imidazole (BL-137), and miconazole nitrate were used. The compounds were dissolved in dimethyl sulfoxide (DMSO) to match the final concentration of the compound equal to or less than 1%.
The methodology used to test the sensitivity of the agent was broth microdilution according to the method described in Standard M27-A2 (Reference method for broth dilution tests to determine the sensitivity of yeasts to antifungal therapy-second edition, NCCLS, volume 22 number 15, USA, 2002) as follows.
The yeast strains were grown according to item 5.1.a to obtain a culture containing between 1×10^6 and 5×10^6 CFU/mL. […]

[3] = test system: Candida parapsilosis 22019; experiment: Broth microdilution MIC (M27-A2), yeast, strain XV; conditions: strain XV 22019, 48 hours incubation
Description: as §1

Candida glabrata 2001 = experiment: Broth microdilution MIC (M27-A2), yeast, strain XVI; conditions: strain XVI 2001, 48 hours incubation
Description: as §1

[4] = test system: Staphylococcus aureus 6538; experiment: Broth microdilution MIC (M7-A6), bacteria, strain XVIII; conditions: strain XVIII 6538, 24 hours incubation
Description: as §2

Clc1ccc(C(Cn2ccnc2)OCc2ccc(-c3nnn(-c4ccccc4)n3)cc2)c(Cl)c1 (stereo not drawn) [BL-137]
MIC (Candida albicans 10231): 512.0 µg/mL (≈ 1040 µM) | MIC [1]: 128.0 µg/mL (≈ 260 µM) | Inhibitory effect on growth (in words) [2]: exert an inhibitory effect on the growth | MIC [3]: 512.0 µg/mL (≈ 1040 µM) | MIC (Candida glabrata 2001): 512.0 µg/mL (≈ 1040 µM) | MIC [4]: 128.0 µg/mL (≈ 260 µM)

Reference: US8975289B2, “Benzyl aralkyl ether compounds, method for preparing same, intermediate compounds, use of said compounds, method for treatment and/or prevention, pharmaceutical composition and medicament containing same” (priority 2009, dated 2015)
